Results reported in ChEMBL document CHEMBL1136972, “Repenins A-D, four new antioxidative coumarinolignoids from Duranta repens Linn” (Bioorg Med Chem Lett, 2009).

Each compound was assayed on Radical scavenging activity (assay: Antioxidant activity assessed as DPPH free radical scavenging activity).
Assay type: functional

IC50 | Structure (SMILES)
612 µM | COc1cc([C@H]2Oc3c(OC)cc4ccc(=O)oc4c3O[C@@H]2CO)ccc1O [CLEOMISCOSIN A]
625 µM | COc1cc([C@H]2Oc3c(OC)cc4ccc(=O)oc4c3O[C@@H]2COC(C)=O)ccc1O [DURANTIN A]
530 µM | COc1cc([C@H]2Oc3c(OC)cc4ccc(=O)oc4c3O[C@@H]2COC(=O)/C=C/c2ccc(O)cc2)ccc1O [REPENIN A]
420 µM | COc1cc(/C=C/C(=O)OC[C@H]2Oc3c(c(OC)cc4ccc(=O)oc34)O[C@@H]2c2ccc(O)c(OC)c2)ccc1O [REPENIN B]
450 µM | COc1cc([C@H]2Oc3c(OC)cc4ccc(=O)oc4c3O[C@@H]2COC(=O)/C=C/c2ccc(O)c(O)c2)ccc1O [REPENIN C]
510 µM | COc1cc([C@H]2Oc3c(OC)cc4ccc(=O)oc4c3O[C@@H]2COC(=O)c2ccc(O)c(O)c2)cc(OC)c1O [REPENIN D]

Structure (SMILES) | IC50
COc1ccc(O)c(C(C)(C)C)c1.COc1ccc(O)cc1C(C)(C)C [BUTYLATED HYDROXYANISOLE] | 43 µM
